Experimental data: US20220273638A1 (Belina Pharma AB, priority 2019, published 2022)

Assays:
[1] = for HR, melanoma specific survival adjusted for Breslow thickness / HR, melanoma specific survival adjusted for Breslow thickness and lymph gland metastases: hazard ratio versus non-users; for effect on melanoma survival: regardless of age, gender and tumor status; for survivability, comparative results adjusted for Breslow thickness: tables 1 and 2, adjusted for Breslow thickness
Procedure: (§1) Both peri- and post-diagnostic antihistamine use was analyzed, using Cox regression models, as well as different subgroups of patients with regard to age, gender (as a proxy for sex) and tumor status.
(§2) Our study population included all of the 35,905 individuals with newly diagnosed melanoma from 2005 through 2014, identified using the Swedish National Quality Register for Malignant Skin Melanoma (hereafter referred to as the Melanoma Register), a database comprising all cases of malignant melanoma of the skin in Sweden since 1990. Melanoma in situ is not included in this register, nor melanoma in any other site than the skin. It has a coverage of approximately 98%, and in addition to variables such as age and TNM status, the Melanoma Register also includes information on the histopathology of the tumors, such as Breslow and Clark measures. Use of the six major antihistamines was established using the Swedish Prescribed Drug Register, a record of all dispensed prescribed pharmaceuticals in Sweden since July 1st 2005. To be included in the registry at least 2 weeks of prescription is required. Prescription free antihistamine use, non-dispensed doses, or use of other, less common, types of antihistamines is here considered non-use. Causes of death were obtained from the Swedish Cause of Death Register, a database where all deaths have been recorded since 1952. Data was pseudo-anonymized and the study was approved by the Regional Ethics Board.
(§3) For the cumulative post-diagnostic antihistamine use analysis, mortality rates for antihistamine users were compared to those of non-users through a Cox regression model allowing for time varying covariates, and survival time was measured in years since diagnosis. This allowed for a single individual to provide data as both a non-user and user of different antihistamines.
(§4) The impact of the cumulative DDDs was assessed after log transformation of the DDDs plus one3. Cox regression analyses were stratified for patient age at diagnosis, tumor size and node status (T and N status, respectively). A lag-time analysis was performed as described by Tamim et al. and Richardson et al. Statistical analyses were performed using R version XXX6.

[2] = Nation-wide register-based study, Cox regression: overall mortality/survival by antihistamine use; format: in vivo, human; conditions: hazard ratio versus non-users
Procedure: as §1, §2, §3, §4

[3] = Risk of developing a second (new primary) melanoma after the first melanoma diagnosis; format: in vivo, human; conditions: for HR, risk of a new primary melanoma: use longer than 3 years after the first diagnosis, adjusted for age and sex, p<0.05
[4] = somnolence, tachycardia and headache reported; cited from earlier work
[5] = use 6 months before and after diagnosis; adjusted for Breslow, sentinel lymph node status and education level

| Structure (SMILES) | HR, melanoma specific survival adjusted for Breslow thickness [1] | HR, melanoma specific survival adjusted for Breslow thickness and lymph gland metastases [1] | effect on melanoma survival [1] | HR, overall survival adjusted for Breslow thickness [2] | HR, overall survival adjusted for Breslow thickness and lymph gland metastases [2] | risk of a new primary melanoma, follow up counted from day 1 [3] | HR, risk of a new primary melanoma [3] | symptoms in connection with overdoses [4] | HR, peridiagnostic use, melanoma mortality [5] | survivability, comparative results adjusted for Breslow thickness [1] | melanoma specific mortality HR, Men <65 ([1]; Men <65, 95% CI in brackets) | melanoma specific mortality HR, Men >65 ([1]; Men >65, 95% CI in brackets) | melanoma specific mortality HR, Women <65 ([1]; Women <65, 95% CI in brackets) | melanoma specific mortality HR, Women >65 ([1]; Women >65, 95% CI in brackets) | melanoma specific mortality HR, looking at DDD:s ([1]; by defined daily doses (DDDs), 95% CI in brackets) |
| --- | --- | --- | --- | --- | --- | --- | --- | --- | --- | --- | --- | --- | --- | --- | --- |
| CCOC(=O)N1CCC(=C2c3ccc(Cl)cc3CCc3cccnc32)CC1 [Loratadine, loratadine] | 0.858 | 0.851 | consistently beneficial effect | 0.962 | 0.964 | No significant difference | 0.88 | increase the incidence of anticholinergic symptoms | 0.534 |  |  |  |  |  |  |
| CC(C)(C(=O)O)c1ccc(C(O)CCCN2CCC(C(O)(c3ccccc3)c3ccccc3)CC2)cc1 (centres unmarked) [Fexofenadine, fexofenadine] | 0.979 | 0.935 |  | 1.011 | 1.013 |  |  |  | 0.901 | lack of improval of survivability |  |  |  |  |  |
| CN1CCC[C@@H]1CCO[C@](C)(c1ccccc1)c1ccc(Cl)cc1 [Clemastine, clemastine] | 1.027 | 0.993 | consistently negative effect | 1.114 | 1.101 |  |  |  | 1.005 | lack of improval of survivability |  |  |  |  |  |
| CC(C)(C)c1ccc(C(=O)CCCN2CCC(OC(c3ccccc3)c3ccccc3)CC2)cc1 [Ebastine, ebastine] | 1.138 | 1.03 |  | 1.117 | 1.076 |  |  |  | 1.032 | lack of improval of survivability |  |  |  |  |  |
| Clc1ccc2c(c1)CCc1cccnc1C2=C1CCNCC1 [Desloratadine, desloratadine] | 0.883 | 0.889 | consistently beneficial effect | 0.95 | 0.953 | No significant difference | 0.88 |  | 0.569 |  | 0.69 (0.37-1.29) | 0.77 (0.45-1.33) | 0.57 (0.25-1.28) | 0.80 (0.44-1.45) | 0.93 (0.87-1.00) |
| O=C(O)COCCN1CCN(C(c2ccccc2)c2ccc(Cl)cc2)CC1 (centres unmarked) [Cetirizine, cetirizine] | 1.006 | 1.014 |  | 1 | 0.991 |  |  |  | 0.962 | lack of improval of survivability |  |  |  |  |  |
